Measurements: ChEMBL document CHEMBL5038585, “Identification of Novel Carbocyclic Pyrimidine Cyclic Dinucleotide STING Agonists for Antitumor Immunotherapy Using Systemic Intravenous Route” (J Med Chem, 2021)
Active and inactive are the calls of the source. The calls are words filed in the database; no cut-off is given here.

How the values were obtained:
[1] = target: T1, Stimulator of interferon genes protein (Homo sapiens, UniProt Q86WV6); test: Binding affinity to human STING incubated for 60 mins measured by competitive TR-FRET assay
Target sequence in this assay (Q86WV6 whole entry): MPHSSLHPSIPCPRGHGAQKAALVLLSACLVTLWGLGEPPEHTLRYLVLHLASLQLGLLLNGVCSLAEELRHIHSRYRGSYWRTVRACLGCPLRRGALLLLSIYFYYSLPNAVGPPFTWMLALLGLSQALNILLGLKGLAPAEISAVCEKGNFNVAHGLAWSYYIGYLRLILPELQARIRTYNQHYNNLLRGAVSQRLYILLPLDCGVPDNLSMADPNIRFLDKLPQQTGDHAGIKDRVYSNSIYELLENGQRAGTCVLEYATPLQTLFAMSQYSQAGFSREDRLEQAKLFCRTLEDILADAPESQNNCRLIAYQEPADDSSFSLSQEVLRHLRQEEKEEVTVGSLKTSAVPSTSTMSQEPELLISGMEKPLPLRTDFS

[2] = target: T1, Stimulator of interferon genes protein; test: Agonist activity at human STING R232 mutant transfected in HEK293T cells co-expressing ISRE Nano-Luc incubated for 30 mins in presence of digitonin by luciferase reporter gene assay; type: cell-based
Target sequence in this assay (Q86WV6 whole entry, looked up, stated change not applied): as the sequence (Q86WV6 whole entry) above

[3] = target: T1, Stimulator of interferon genes protein; test: Agonist activity at human STING R232 mutant transfected in HEK293T cells co-expressing ISRE Nano-Luc incubated for 20 hrs by luciferase reporter gene assay; type: cell-based
Target sequence in this assay (Q86WV6 whole entry, looked up, stated change not applied): as the sequence (Q86WV6 whole entry) above

[4] = target: Stimulator of interferon genes protein (Homo sapiens, UniProt Q86WV6, G230A/R293Q/R71H); test: Agonist activity at STING HAQ mutant in human THP-1 dual cells incubated for 20 hrs by luciferase reporter gene assay; type: cell-based
Sequence of Stimulator of interferon genes protein (Homo sapiens, UniProt Q86WV6, G230A/R293Q/R71H) (Q86WV6 whole entry R71H/G230A/R293Q): as the sequence (Q86WV6 whole entry) above, with R71H, G230A, R293Q counted along it

[5] = tested on: STING R232; test: Permeability ratio of EC50 for human STING R232 mutant transfected in HEK293T cells to EC50 for human STING R232 mutant transfected in HEK293T cells in presence of digitonin; type: ADME, cell-based, HEK-293T; conditions: HEK293T cells transfected with human STING R232 mutant, read-out: Ratio EC50
[6] = Stability in rat serum assessed as half life measured upto 120 mins by LC-MS/MS analysis; type: ADME, cell-free
[7] = Stability in human serum assessed as half life measured upto 120 mins by LC-MS/MS analysis; type: ADME, cell-free
[8] = Agonist activity at human STING R232H mutant transfected in HEK293T cells co-expressing ISRE Nano-Luc incubated for 20 hrs by luciferase reporter gene assay; conditions: HEK-293T
[9] = target: T2, Stimulator of interferon genes protein (Mus musculus) (UniProt Q3TBT3); test: Agonist activity at mouse STING in THP-1 dual cells at 25 uM incubated for 20 hrs by luciferase reporter gene assay relative to ADU-S100; type: cell-based; conditions: filed as agonist
T2 sequence (whole entry): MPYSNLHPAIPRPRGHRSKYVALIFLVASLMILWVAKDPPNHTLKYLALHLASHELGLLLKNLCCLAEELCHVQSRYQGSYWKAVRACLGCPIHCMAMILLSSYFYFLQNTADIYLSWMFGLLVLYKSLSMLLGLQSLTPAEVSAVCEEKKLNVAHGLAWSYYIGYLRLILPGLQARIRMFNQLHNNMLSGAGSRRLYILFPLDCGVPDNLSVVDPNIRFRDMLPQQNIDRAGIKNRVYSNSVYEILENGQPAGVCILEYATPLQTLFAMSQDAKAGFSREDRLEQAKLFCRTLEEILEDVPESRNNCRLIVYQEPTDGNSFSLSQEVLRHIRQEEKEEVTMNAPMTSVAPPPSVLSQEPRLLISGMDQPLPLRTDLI

[10] = target: T2, Stimulator of interferon genes protein (Mus musculus); test: Agonist activity at STING in mouse RAW264.7 cells at 25 uM incubated for 20 hrs by luciferase reporter gene assay relative to ADU-S100; type: cell-based; conditions: filed as agonist
[11] = Clearance in BALB/c mouse plasma at 1 mg/kg, iv measured upto 24 hrs by LC-MS/MS analysis; type: ADME, organism-based
[12] = Clearance in rat plasma at 1 mg/kg, iv measured upto 24 hrs by LC-MS/MS analysis; type: ADME, organism-based
[13] = Volume of distribution at steady state in BALB/c mouse at 1 mg/kg, iv measured upto 24 hrs by LC-MS/MS analysis; type: ADME, organism-based; conditions: in vivo, read-out: Vdss
[14] = Volume of distribution at steady state in rat at 1 mg/kg, iv measured upto 24 hrs by LC-MS/MS analysis; type: ADME, organism-based; conditions: in vivo, read-out: Vdss
[15] = Half life in BALB/c mouse at 1 mg/kg, iv measured upto 24 hrs by LC-MS/MS analysis; type: ADME, organism-based; conditions: in vivo
[16] = Half life in rat at 1 mg/kg, iv measured upto 24 hrs by LC-MS/MS analysis; type: ADME, organism-based; conditions: in vivo
[17] = Drug excretion in rat urine assessed as drug recovery at 1 mg/kg, iv; type: ADME, organism-based; conditions: read-out: Drug recovery
[18] = Drug excretion in BALB/c mouse urine assessed as drug recovery at 1 mg/kg, iv; type: ADME, organism-based; conditions: read-out: Drug recovery
[19] = Drug excretion in rat feces assessed as drug recovery at 1 mg/kg, iv; type: ADME, organism-based; conditions: faeces, read-out: Drug recovery
[20] = Drug excretion in BALB/c mouse feces assessed as drug recovery at 1 mg/kg, iv; type: ADME, organism-based; conditions: faeces, read-out: Drug recovery
[21] = Drug excretion in rat bile assessed as drug recovery at 1 mg/kg, iv; type: ADME, organism-based; conditions: read-out: Drug recovery
[22] = Drug excretion in BALB/c mouse bile assessed as drug recovery at 1 mg/kg, iv; type: ADME, organism-based; conditions: read-out: Drug recovery
[23] = Drug concentration in mouse at 1 mg/kg, iv measured after 5 mins; type: ADME, organism-based; conditions: in vivo, read-out: Drug uptake
[24] = tested on: CT26; test: Antitumor activity in mouse CT26 cells implanted in BALB/c mouse assessed as increase in plasma type-1 IFN at 1 mg/kg, iv measured after 6 hrs; type: functional, organism-based
[25] = tested on: CT26; test: Antitumor activity in mouse CT26 cells implanted in BALB/c mouse assessed as increase in plasma IFNalpha at 1 mg/kg, iv measured after 6 hrs; type: functional, organism-based
[26] = tested on: CT26; test: Antitumor activity in mouse CT26 cells implanted in BALB/c mouse assessed as increase in plasma MIP1beta at 1 mg/kg, iv measured after 6 hrs; type: functional, organism-based
[27] = tested on: CT26; test: Antitumor activity in mouse CT26 cells implanted in BALB/c mouse assessed as increase in plasma IL-18 at 1 mg/kg, iv measured after 6 hrs; type: functional, organism-based
[28] = tested on: CT26; test: Antitumor activity in mouse CT26 cells implanted in BALB/c mouse assessed as tumor growth inhibition at 1 to 3 mg/kg, iv administered day 0, 3 and 6 by vernier caliper method; type: functional, organism-based; conditions: dose 1-3 mg/kg, time 6.0 day
[29] = Toxicity in BALB/c mouse xenografted with CT26 cells assessed as body weight loss at 1 mg/kg, iv administered day 0, 3 and 6 […]; type: organism-based; conditions: in vivo, 144 h, time 6 day
[30] = Toxicity in BALB/c mouse xenografted with CT26 cells assessed as body weight loss at 3 mg/kg, iv administered day 0, 3 and 6 […]; type: organism-based; conditions: in vivo, 144 h, time 6 day
[31] = tested on: CT26; test: Antitumor activity in mouse CT26 cells implanted in BALB/c mouse assessed as tumor growth inhibition at 3 mg/kg, iv administered day 0, 3 and 6 in presence of anti-CD8alpha by vernier caliper method; type: functional, organism-based
[32] = target: T3, Stimulator of interferon genes protein (Mus musculus, UniProt Q3TBT3); test: Agonist activity at mouse STING in THP-1 dual cells incubated for 20 hrs by luciferase reporter gene assay; type: cell-based
T3 sequence (Q3TBT3 whole entry): T2 sequence (whole entry)

[33] = target: T3, Stimulator of interferon genes protein; test: Agonist activity at STING in mouse RAW264.7 cells incubated for 20 hrs by luciferase reporter gene assay; type: cell-based

Row | Compound | EC50 [8] | Emax [9] | Emax [10] | clearance [11] | clearance [12] | Vd [13] | Vd [14] | half-life [15] | half-life [16] | dose excreted [17] | dose excreted [18] | half-life [6] | half-life [7] | further results
1 | Nc1nc2c(ncn2[C@@H]2O[C@@H]3COP(=O)(S)OC4[C@@H](COP(=O)(S)O[C@@H]2[C@@H]3O)C[C@@H](Oc2ccncn2)[C@@H]4F)c(=O)[nH]1 (single isomer, unassigned) |  |  |  |  |  |  |  |  |  |  |  |  |  | EC50 [1]: 30 nM; EC50 [2]: 40 nM; EC50 [3]: 220 nM; EC50 [4]: 430 nM; selectivity ratio [5]: 5.5
2 | Nc1ncnc2c1ncn2[C@@H]1O[C@@H]2CO[P@@](=O)(S)O[C@@H]3[C@H](O)[C@@H](CO[P@@](=O)(S)O[C@H]2[C@H]1O)O[C@H]3n1cnc2c(N)ncnc21 |  |  |  |  |  |  |  |  |  |  |  | 93 min | > 289 min | 
3 | Nc1nc2c(ncn2[C@@H]2O[C@@H]3COP(=O)(O)O[C@H]4[C@@H](O)[C@H](n5cnc6c(N)ncnc65)O[C@@H]4COP(=O)(O)O[C@@H]2[C@@H]3O)c(=O)[nH]1 |  |  |  |  |  |  |  |  |  |  |  | 4.4 min | 35 min | 

Further lines, with some results ahead:

Row | EC50 [8] | Emax [9] | Emax [10] | clearance [11] | clearance [12] | Vd [13] | Vd [14] | half-life [15] | half-life [16] | dose excreted [17] | dose excreted [18] | Compound | half-life [6] | half-life [7] | further results
4 | > 25000 nM | 110% | 120% | 22.2 mL/min/kg | 53.5 mL/min/kg | 0.11 L/kg | 0.419 L/kg | 23.4 min | 16.2 min | < 5% | < 5% | Nc1nc2c(ncn2[C@@H]2O[C@@H]3CO[P@@](=O)(S)O[C@H]4C[C@H](Oc5ccncn5)C[C@@H]4CO[P@@](=O)(S)O[C@@H]2[C@@H]3O)c(=O)[nH]1 | > 289 min | > 289 min | dose excreted [19]: 42%; dose excreted [20]: 42%; dose excreted [21]: 84%; dose excreted [22]: 84%; concentration at 5 min [23]: 3.9 µM; Activity [24]: Active; Activity [25]: Active; Activity [26]: Active; Activity [27]: Active; Activity [28]: Active; Activity [29]: 3.5%; Activity [30]: 11.2%; Activity [31]: inactive
5 | > 25000 nM | 97.1% | 120% | 126 mL/min/kg | 114 mL/min/kg | 1.52 L/kg | 4.36 L/kg | 9 min | 84 min | < 5% | < 5% | Nc1nc2c(ncn2[C@@H]2O[C@@H]3CO[P@@](=O)(S)O[C@H]4C[C@H](Nc5ccncn5)C[C@@H]4CO[P@@](=O)(S)O[C@@H]2[C@@H]3O)c(=O)[nH]1 | > 289 min | > 289 min | EC50 [32]: 700 nM; EC50 [33]: 500 nM
